The text below walks through data of patent US20120053148A1, “INHIBITORS OF HEPATITIS C VIRUS” (GILEAD SCIENCES, INC., priority 2010, published 2012).

Where two headings read alike, the source gives them in different places.

The subject of the assay is HCV Replicon IB. As to the kind of experiment: HCV replicon assay in Huh-7 cells, genotype 1b (Rluc luciferase readout). The assay is classed as cell-based, hepatitis C virus. To be noted: for EC50: read-out: EC50_HCV1B_; for inhibition at 10 µM: read-out: Inhibition @ 10 uM in 1b-Rluc.
The mark [1] stands for this setting: Hepatitis C virus, Huh-7, 72 h, HCV1B replicon, Huh-7 cells, 3 days.
The mark [2] stands for this setting: Hepatitis C virus, 72 h, 10 uM, 1b-Rluc replicon, Huh-7 cells, 3 days.

For `Cc1cc(-c2nnc(NCCCCO)s2)nc2c(C(F)(F)F)cc(C3CC3)cc12` [Compound 307], under setting [1], the EC50 was determined as 14.1 nM. Consider `Cc1cc(C(=O)Nc2cn[nH]c2)nc2c(OC(F)(F)F)cc(C3CC3)cc12` [Compound 439], for which the EC50 under setting [1] was 1160 nM. As for `Cc1cc(C(=O)NCC2(O)CC2)nc2c(C(F)(F)F)cc(C3CC3)cc12` [Compound 97], the inhibition at 10 µM under setting [2] was found to be 98.8%. The same measure, in the same setting: as for `CCc1cc(C(F)(F)F)c2nc(C(=O)NCc3ccccn3)cc(C)c2c1` [Compound 158], the figure is 98.9%.

With `COCCCNC(=O)CNC(=O)c1cc(C)c2cc(C3CC3)cc(C(F)(F)F)c2n1` [Compound 118], the inhibition at 10 µM under setting [2] stood at 84.5%. Take `CSCOC1(C)CC(Nc2nnc(-c3cc(C)c4cc(OCC(F)(F)F)cc(C(C)(C)C)c4n3)o2)C1` (stereo not shown) [Compound 494]: the EC50 under setting [1] is 43.1 nM. As to `CCCCOc1cc(C(F)(F)F)c2nc(C(=O)NCc3ccccn3)cc(C)c2c1` [Compound 183], the inhibition at 10 µM under setting [2] was found to be 88.8%. As to `Cc1cc(C(=O)NCC2CC(F)(F)CN2)nc2c(OC(F)(F)F)cc(C3CC3)cc12` (stereo not shown) [Compound 437], the EC50 under setting [1] worked out at 20.2 nM.

For `Cc1cc(-c2nnc(NC3CS(=O)(=O)C3)o2)nc2c(C(C)(C)C)cc(OCC(F)(F)F)cc12` [Compound 506], under setting [1], the EC50 was 62.5 nM.

Turning to `Cc1cc(-c2nnc(NCC3OCCO3)o2)nc2c(C(C)(C)F)cc(C3CC3)cc12` [Compound 546], under setting [1], the EC50 was determined as 7.48 nM. Same read-out and setting: the value for `CO[C@@H]1CN[C@H](CNC(=O)c2nc(N)c3cc(-c4ccccc4)cc(C(F)(F)F)c3n2)C1` [Compound 436] was 589 nM; that for `Cc1cc(-c2nnc(Nc3cccnc3)o2)nc2c(C(C)(C)C)cc(OCC(F)(F)F)cc12` [Compound 457] was 4.1 nM; that for `CC(F)(F)CNc1nnc(-c2cc(N)c3cc(C4CC4)cc(C(C)(C)C)c3n2)o1` [Compound 346] was 157 nM. `Cc1cc(C(=O)NCC(O)c2ccccc2)nc2c(C(F)(F)F)cc(-c3ccccc3)cc12` (stereo not shown) [Compound 168]: the inhibition at 10 µM under setting [2] turned out to be 86.4%. For `Cc1cc(-c2nnc(NCC3OCCO3)o2)nc2c(C3(C)SCCS3)cc(C3CC3)cc12` [Compound 544], under setting [1], the EC50 was determined as 46.7 nM.

Regarding `Cc1cc(-c2nnc(NCCCS(N)(=O)=O)s2)nc2c(C(F)(F)F)cc(C3CC3)cc12` [Compound 309], the EC50 under setting [1] turned out to be 7090 nM. As to `Cc1cc(-c2nnc(N[C@H]3C[C@@](CF)(OP(=O)(O)O)C3)o2)nc2c(C(C)(C)C)cc(OCC(F)(F)F)cc12` [Compound 470], where the note is “Hepatitis C virus, Huh-7, 72 h”, the EC50 was 0.72 nM. For `Cc1cc(C(=O)NC[C@H]2CCCN2)nc2c(C(F)(F)F)cc(C3CC3)cc12` (single isomer, unassigned) [Compound 113], the inhibition at 10 µM under setting [2] is 96.2%. As to `CC(C)(C)c1cc(C2CC2)cc2c(N)cc(-c3nnc(NCCCC(F)(F)F)o3)nc12` [Compound 356], the EC50 under setting [1] came out at 10.6 nM. On the same count and under the same terms, the value for `Cc1cc(C(=O)NC[C@@H]2CC3(CN2)OCCO3)nc2c(C(C)(C)C)cc(OCC(F)(F)F)cc12` [Compound 510] was 9.8 nM.

In the case of `Cc1cc(C(=O)NCc2ccccn2)nc2c(C(F)(F)F)cc(C3CC3(F)F)cc12` (stereo not shown) [Compound 154], the inhibition at 10 µM under setting [2] came to 100%. Regarding `Cc1cc(-c2nnc(N[C@H]3C[C@](O)(CF)C3)o2)nc2c(C(C)(C)C)cc(OCCF)cc12` [Compound 529], under setting [1], the EC50 turned out to be 1.37 nM. The same measure, in the same setting: as for `CC(C)(C)c1cc(C2CC2)cc2c(N)nc(C(=O)NCc3ncccn3)nc12` [Compound 433], the figure is 1.19 nM; as for `Cc1cc(C(=O)NCc2ncccn2)nc2c(OC(F)(F)F)cc(C3CC3)cc12` [Compound 440], 10.2 nM. As for `Cc1cc(-c2nnc(N[C@H]3C[C@](O)(CF)C3)o2)nc2c(C(C)(C)C)cc(OCC(F)F)cc12` [Compound 528], the EC50 under setting [1] worked out at 0.41 nM. On to `Cc1cc(-c2nnc(N)o2)nc2c(C(F)(F)F)cc(C3CC3)cc12` [Compound 243], for which the inhibition at 10 µM under setting [2] is 88.4%. `Cc1cc(C(=O)NCCC2OCCO2)nc2c(C(F)(F)F)cc(C3CC3)cc12` [Compound 106]: the inhibition at 10 µM under setting [2] is 99.7%.

Consider `C=C(C)c1cc(C(F)(F)F)c2nc(C(=O)NCc3ccccn3)cc(C)c2c1` [Compound 156], for which, under setting [2], the inhibition at 10 µM is 99.6%. For the molecule `Cc1cc(C(=O)NCC(C)(C)C#N)nc2c(C(F)(F)F)cc(-c3ccccc3)cc12` [Compound 162], the inhibition at 10 µM under setting [2] stood at 80.5%. On the same count and under the same terms, the value for `Cc1cc(C(=O)NCc2ccccn2)nc2c(C(C)(C)C)cc(C3CC3)cc12` [Compound 226] was 100%; that for `COCCNC(=O)c1cc(C)c2cc(C3CC3)cc(C(F)(F)F)c2n1` [Compound 119] was 99.5%. As for `CCCC(=O)Nc1nnc(-c2cc(C)c3cc(C4CC4)cc(C(F)(F)F)c3n2)o1` [Compound 262], the inhibition at 10 µM under setting [2] was determined as 99.7%. `Cc1cc(C(=O)NCc2ccccn2)nc2c(C(F)(F)F)cc(C(C)(C)O)cc12` [Compound 161]: the inhibition at 10 µM under setting [2] came to 76.7%.

On to `Cc1cc(-c2nnc(NCC3OCCO3)o2)nc2c(C(C)(C)C)cc(OCC3OCCO3)cc12` [Compound 533], for which the EC50 under setting [1] came out at 306 nM. In the case of `Cc1cc(-c2nnc(NC3COC3)o2)nc2c(C(C)(C)C)cc(OCC(F)(F)F)cc12` [Compound 487], the EC50 under setting [1] is 41.5 nM. On the same count and under the same terms, the value for `CC(C)(O)CCNc1nnc(-c2cc(N)c3cc(C4CC4)cc(C(F)(F)F)c3n2)s1` [Compound 374] was 62 nM; that for `CO[C@H]1CN[C@H](CNC(=O)c2cc(N)c3cc(C4CC4)cc(C(C)(C)C)c3n2)C1` [Compound 323] was 7 nM.

As for `CCC(=O)CNC(=O)c1cc(C)c2cc(C3CC3)cc(C(F)(F)F)c2n1` [Compound 95], under setting [2], the inhibition at 10 µM amounted to 100%. On the same count and under the same terms, the value for `CCCCNc1nnc(-c2cc(C)c3cc(C4CC4)cc(C(F)(F)F)c3n2)s1` [Compound 288] was 100%. On to `CCCNc1nnc(-c2cc(C)c3cc(C4CC4)cc(C(F)(F)F)c3n2)o1` [Compound 387], for which, under setting [1], the EC50 is 3.3 nM.

With `Cc1cc(C(=O)NCCCO)nc2c(C(F)(F)F)cc(-c3ccccc3)cc12` [Compound 164], under setting [2], the inhibition at 10 µM was determined as 94.6%. Turning to `Nc1cc(-c2nnc(NCCCO)s2)nc2c(C(F)(F)F)cc(C3CC3)cc12` [Compound 375], the EC50 under setting [1] was found to be 9.56 nM.

`Cc1cc(-c2nnc(N[C@@H]3CCOC3)o2)nc2c(C(C)(C)C)cc(OCC(F)(F)F)cc12` [Compound 450]: the EC50 under setting [1] is 3.15 nM. As to `Cc1cc(C(=O)NCc2cccc(F)n2)nc2c(C(F)(F)F)cc(C3CC3)cc12` [Compound 80], the inhibition at 10 µM under setting [2] came out at 99.8%. The same measure, in the same setting: the value for `Cc1cc(C(=O)NCc2ccccn2)nc2c(C(F)(F)F)cc(C3(C)CC3)cc12` [Compound 138] was 99%. For `Cc1cc(-c2nnc(Nc3cccnc3)s2)nc2c(C(C)(C)C)cc(OCC(F)(F)F)cc12` [Compound 519], the EC50 under setting [1] worked out at 21.1 nM. Consider `Cc1cc(C(=O)NCc2ccccn2)nc2c(C(F)(F)F)cc(N(C)S(C)(=O)=O)cc12` [Compound 179], for which, under setting [2], the inhibition at 10 µM stood at 98.9%. As to `Cc1cc(-c2nnc(N[C@H]3CC[C@H](O)CC3)o2)nc2c(C(C)(C)C)cc(OCC(F)(F)F)cc12` [Compound 493], the EC50 under setting [1] worked out at 8.74 nM.

`CCCCNc1nnc(-c2cc(C)c3cc(C4CC4)cc(C(F)(F)F)c3n2)o1` [Compound 244]: the inhibition at 10 µM under setting [2] turned out to be 100%.

For `O=C(NCc1ccccn1)c1cc(O)c2cc(OC(F)(F)F)cc(-c3cccc4[nH]ncc34)c2n1` [Compound 239], under setting [2], the inhibition at 10 µM was 49.3%.

Take `Cc1cc(-c2nnc(N[C@H]3CC[C@@](O)(CF)C3)o2)nc2c(C(C)(C)C)cc(OCC(F)(F)F)cc12` [Compound 492]: under setting [1], the EC50 came to 19.3 nM. Same read-out and setting: as for `CCCCNc1nnc(-c2cc(Cl)c3cc(C4CC4)cc(C(C)(C)C)c3n2)s1` [Compound 378], the figure is 48.9 nM; as for `Cc1cc(-c2nnc(N[C@H]3CC[C@@H](O)CC3)o2)nc2c(C(C)(C)C)cc(OCC(F)(F)F)cc12` [Compound 498], 2.39 nM. With `Cc1cc(-c2nnc(Nc3cccc(F)c3)o2)nc2c(C(F)(F)F)cc(C3CC3)cc12` [Compound 271], under “Hepatitis C virus, Huh-7, 72 h”, the inhibition at 10 µM stood at 100%. Take `Cc1cc(-c2nnc(NCC3COCCN3)s2)nc2c(C(F)(F)F)cc(C3CC3)cc12` (stereo not shown) [Compound 299]: the inhibition at 10 µM under setting [2] came to 98%. On to `Cc1cc(C(=O)NC[C@@H]2CC3(CN2)OCCO3)nc2c(C(C)(C)C)cc(C3CC3)cc12` [Compound 431], for which, under setting [1], the EC50 came to 8.04 nM.

Consider `Cc1cc(-c2nnc(N[C@H]3CC[C@](O)(CF)C3)o2)nc2c(C(C)(C)C)cc(OCC(F)(F)F)cc12` [Compound 491], for which, under setting [1], the EC50 is 0.57 nM.

`Cc1cc(-c2nnc(N[C@H]3C[C@@H](O)C3)o2)nc2c(C(C)(C)C)cc(OCC(F)(F)F)cc12` [Compound 462]: under setting [1], the EC50 is 1.54 nM. Turning to `Cc1cc(-c2nnc(NC3CCC(O)(CF)C3)o2)nc2c(C(C)(C)C)cc(OCC(F)(F)F)cc12` (stereo not shown) [Compound 490], the EC50 (HCV1B replicon, Huh-7 cells, 3 days) stood at 50 nM.

Turning to `Cc1cc(-c2nnc(NCC3OCCO3)o2)nc2c(C(C)(C)O)cc(C3CC3)cc12` [Compound 542], the EC50 under setting [1] worked out at 43.8 nM. Take `CCOP(=O)(CNc1nnc(-c2cc(C)c3cc(OCC(F)(F)F)cc(C(C)(C)C)c3n2)o1)OCC` [Compound 460]: the EC50 (Hepatitis C virus, Huh-7, 72 h) was 388 nM. Turning to `Cc1cc(C(=O)NC[C@H]2CC(F)(F)CN2)nc2c(C(F)(F)F)cc(OC(F)F)cc12` [Compound 190], the inhibition at 10 µM under setting [2] stood at 94.7%. The same measure, in the same setting: the value for `Cc1cc(C(=O)NCCCO)nc2c(C(F)(F)F)cc(C3CC3)cc12` [Compound 121] was 99.2%; that for `Cc1cc(-c2nnc(NCCCCO)o2)nc2c(C(C)(C)C)cc(C3CC3)cc12` [Compound 284] was 99.9%. The same measure, in the same setting: the value for `Cc1cc(-c2nnc(NCC(C)(C)CO)s2)nc2c(C(F)(F)F)cc(C3CC3)cc12` [Compound 304] was 96.2%.

In the case of `Cc1cc(-c2nnc(NCC3OCCO3)o2)nc2c(OC(C)(C)C)cc(C3CC3)cc12` [Compound 548], the EC50 under setting [1] came out at 37.1 nM. Same read-out and setting: as for `Cc1cc(OC(F)(F)F)c2nc(C(=O)NCc3cnccn3)cc(C)c2c1` [Compound 445], the figure is 257 nM.

One may read the inhibition as the drop in the measured response relative to a control, in per cent.
